Experimental data taken from article PMC8708390, “Fatty Acid Modification of the Anticancer Peptide LVTX-9 to Enhance Its Cytotoxicity against Malignant Melanoma Cells” (Toxins, 2021).
Where a SMILES comes first, the peptide text is derived from it. The star is where a group is joined. Arachidoyl = CCCCCCCCCCCCCCCCCCCC(=O)*; Stearoyl = CCCCCCCCCCCCCCCCCC(=O)*; Palmitoyl = CCCCCCCCCCCCCCCC(=O)*; Myristoyl = CCCCCCCCCCCCCC(=O)*; Lauroyl = CCCCCCCCCCCC(=O)*

How the values were obtained:
[1] = RP-HPLC retention time as measure of hydrophobicity; format: physicochemical; conditions: chromatographic, Vydac C18 300 Å 4.6 × 250 mm, 1.0 mL/min, gradient 30-100% acetonitrile/0.1% TFA, 215 nm, column 25 ± 5 °C; maximum height of peak
Description: Peptides were synthesized using the Fmoc SPPS methods. Briefly, the peptide LVTX-9 (AC-[…]-amide) was prepared on Rink Amide AM resin at a 0.2 mmol scale. A 4-fold excess of the Fmoc-protected amino acids was coupled with the Rink Amide AM resin using HCTU and HOBT as the activating agents in 5% NMM/DMF. After the synthesis of LVTX-9, the N-terminal Fmoc group was removed using 20% piperidine. As in the previous steps, a series of fatty acids (C12-C20) was activated in HCTU and HOBT using 5% NMM/DMF, and coupled to peptidyl resin for 2 h. Peptides were cleaved using trifluoroacetic acid (TFA)/thioanisole (TIS)/anisole (95:3:2 (v/v)) for 2.5 h, and the collected lysate was precipitated in cold diethyl ether three times. The precipitate was air-dried naturally. Next, the obtained crude products were purified using RP-HPLC (C18, 4.6 mm × 250 mm) on the basis of a 0.1% TFA/acetonitrile gradient from 30% to 100% in 46 min. Then, we collected the eluted peptides and determined the molecular mass using MALDI-TOF MS (AB, SCIEX, Waltham, MA, USA).
Figure 2 Purification and identification of five lipopeptides using RP-HPLC and MALDL-TOF MS: The purification of (A) LVTX-9-C12, (B) LVTX-9-C14, (C) LVTX-9-C16, (D) LVTX-9-C18, and (E) LVTX-9-C20 was performed using RP-HPLC (column, Vydac, C18, 300 Å, 4.6 × 250 mm). The lipopeptides were separated at a flow rate of 1.0 mL/min under a gradient of 30–100% acetonitrile/0.1% TFA. The elution of lipopeptides was monitored at 215 nm. Identification of (F) LVTX-9-C12, (G) LVTX-9-C14, (H) LVTX-9-C16, (I) LVTX-9-C18, and (J) LVTX-9-C20 by MALDI-TOF MS, respectively. The red star (*) represents the target peak. […]
Table S1. Purification gradient of peptides.
Time (min) Flow Rate (mL/min) A% B%
Wavelength: 215 nm/280 nm, column temperature: 25 ± 5 ℃, A: ddH2O (0.1% TFA), B: acetonitrile
(1 picture or pasted object on this page, not shown here)

[2] = system: B16-F10 cells; experiment: Scanning electron microscopy of cell membrane; format: cell-based, mouse; conditions: 5 μM, 24 h
Description: The morphologic changes of the cell membrane of B16-F10 cells treated with peptides were observed by SEM [14]. The cells were seeded on coverslips and placed into a six-well plate, then treated with LVTX-9 (50 μM) and LVTX-9-C18 (5 μM) for 24 h. After incubation, the B16-F10 cells were washed with sterile PBS gently three times and fixed with 2 mL of 2.5% glutaraldehyde solution in each well for 4 h at room temperature. Then, the fixed cells were dehydrated with a series of ethanol concentrations. We dried the samples with a Critical Point Dryer and coated them with gold plating before observation. A scanning electron microscope (Hitachi Su8010, Tokyo, Japan) was used to examine the prepared samples.

[3] = Circular dichroism secondary structure; format: physicochemical; conditions: 100 µM, 25 °C, 180-280 nm
Description: (§1) Dynamic light scattering (DLS) of Zetasizer Nano ZSP (Malvern Instruments, Malvern, UK) apparatus was used to determine the hydrodynamic size and zeta potential of LVTX-9 and LVTX-9-C18. The peptides concentrations were diluted to 100 µM with ultrapure water with a final volume of 1 mL. The procedure ran at 25 °C, with each experiment repeated three times. The secondary structures of LVTX-9 and LVTX-9-C18 were determined to be in line with the previous protocol. The peptide concentrations were then diluted to 100 µM with ultrapure water and 100 mM of SDS was added in a final volume of 250 μL. The procedure was carried out at 25 °C. CD spectra were recorded between 180 nm and 280 nm on a Jasco J-815 CD spectrometer.

[4] = system: B16-F10 cells; experiment: Trypan blue staining; format: cell-based, mouse; conditions: 5 μM, 24 h, 0.04% trypan blue 4 min
Description: B16-F10 cells were seeded into a 48-well plate (2 × 10^3 cells/well) for 24 h and treated with LVTX-9 (50 μM) and LVTX-9-C18 (5 μM) for 24 h. The cells were washed with PBS gently and stained with 0.04% Trypan blue for 4 min. Dead cells were stained blue.

[5] = system: B16-F10 tumor spheroids; experiment: Toxicity in 3D tumor spheroids; format: cell-based, mouse; conditions: 20 μM, 3 days
Description: To further study the toxicity of LVTX-9 and LVTX-9-C18 in vitro, B16-F10 tumor spheroids, as 3D tumor models, were cultured according to protocols in the literature. Briefly, B16-F10 cells were seeded into an ultra-low attachment, 96-well, round-bottom plate (Corning) and cultured at 37 °C for 3–4 days. Then, the B16-F10 tumor spheroids were treated with 50 or 25 μM of LVTX-9 and 20 or 10 μM of LVTX-9-C18 in the RPMI-1640 supplied with 10% serum for 3 days. Subsequently, images were taken on days 0 and 3, and the cell viability was measured using a CellTiter-Glo 3D Cell Viability Assay (G9683).

[6] = system: B16-F10 cells; experiment: Colony formation assay; format: cell-based, mouse; conditions: 1 μM, 7 days, crystal violet, mean ± SD, n = 3, control group 51 ± 12.0, p = 0.0198 vs control
Description: To detect the proliferation of B16-F10 cells treated with LVTX-9 and LVTX-9-C18 at low concentrations, digested cells were counted using a Cellometer K2 and seeded into a 12-well plate with approximately 100 cells per well. After 36 h, cells were treated with LVTX-9 (10 μM) and LVTX-9-C18 (1 μM), then incubated for 7 days at 37 °C in a humidified 5% CO2 atmosphere. Visible colonies were stained with 0.5% crystal violet and photographically recorded. The colony formation rates were calculated, and curves were manufactured by GraphPad prism 5.0.

[7] = system: B16-F10 cells; experiment: CCK-8 cell viability assay, B16-F10 cells; format: cell-based, mouse; conditions: 1 μM
Description: Mouse skin melanoma cells (B16-F10) were cultured in RPMI-1640 (Gibco), and mouse fibroblast cells (L-929), human lung carcinoma cells (A549), mouse breast cells (4T1), human hepatocarcinoma cells (HepG2), and human cervical carcinoma cells (Hela) were cultured in Dulbecco’s Modified Eagle Medium (DMEM, Gibco). All culture medium contained 10% fetal bovine serum (serum, Gibco), 100 U/mL of penicillin, and […] of streptomycin at 37 °C with 5% CO2.
Cell viability was quantified using a CCK-8 assay. At first, cells were seeded into a 96-well plate at approximately 2 × 10^3 cells/well. The following day, we created a 2-fold dilution series of each peptide using fresh medium (with or without 10% serum) for the treated cells, and cell viability was detected at 450 nm via a CCK-8 assay using an Absorbance Microplate Reader (BioTek Instruments, Winooski, VT, USA) following 24 h of drug incubation. The activity curves and IC50 values of the peptides were visualized using GraphPad prism 5.0.

[8] = system: B16-F10 cells; experiment: LDH leakage assay; format: cell-based, mouse; conditions: 12.5 μM, 24 h, absorbance 490 nm, n = 3
Description: At first, the B16-F10 cells were cultured in 96-well plates for 24 h at approximately 2 × 10^3 cells/well. Subsequently, the cells were treated for 24 h with LVTX-9 or LVTX-9-C18 with a series of concentration gradients. LDH leakage detection was detected using an LDH Cytotoxicity Assay Kit according to the manufacturer’s instructions (Beyotime, Shanghai, China. C0017). The absorption was measured using an Absorbance Microplate Reader (BioTek Instruments) at 490 nm. The LDH release (%) of peptides was calculated by GraphPad prism 5.0.

[9] = Dynamic light scattering (hydrodynamic size, PDI, zeta potential); format: physicochemical; conditions: 100 µM in ultrapure water, 25 °C, repeated three times
Description: as §1

## CCCCCCCCCCCCCCCCCC(=O)N[C@@H](C)C(=O)N[C@@H](CO)C(=O)N[C@H](C(=O)NCC(=O)N[C@@H](C)C(=O)N[C@@H](CC(C)C)C(=O)N[C@H](C(=O)N[C@@H](CCC(N)=O)C(=O)N[C@@H](CCCCN)C(=O)N[C@@H](C)C(=O)N[C@H](C(=O)N[C@@H](C)C(=O)N[C@@H](CC(C)C)C(=O)N[C@H](C(=O)N[C@@H](CCCCN)C(=O)N[C@@H](C)C(=O)N[C@@H](CCCCN)C(=O)N[C@@H](C)C(=O)N[C@@H](C)C(N)=O)[C@@H](C)CC)[C@@H](C)CC)[C@@H](C)CC)[C@@H](C)CC [LVTX-9-C18] (Stearoyl-ASIGALIQKAIALIKAKAA-NH2)
[1]
  TR (retention time, RP-HPLC; indicates the hydrophobicity of the peptides): 41.89 min
[2]
  cell membrane morphology by SEM at 5 μM: totally disorganized or even absent
[3]; 100 mM SDS
  secondary structure (CD) in 100 mM of SDS: α-helical conformation
[3]; ultrapure water
  secondary structure (CD) in ultrapure water: α-helical conformation
[4]
  trypan blue staining at 5 μM: stained blue
[5]; CellTiter-Glo 3D Cell Viability Assay, n = 4, p < 0.0001
  cell viability of B16-F10 tumor spheroids at 20 μM: notably reduced the cell viability
[5]; RPMI-1640 with 10% serum, p = 0.0072
  growth (volume) of B16-F10 tumor spheroids at 20 μM: significantly suppressed
[6]
  colony number at 1 μM: 26 ± 2.9
[7]
  cytotoxic effect on B16-F10 cells at 1 μM: no significant cytotoxic effect
[8]
  LDH release at 12.5 μM: ~ 40%
[9]
  PDI (hydrodynamic size, DLS): 0.64 ± 0.1369
[9]; p = 0.0084
  zeta potential: significantly higher than that of LVTX-9

## CCCCCCCCCCCCCCCC(=O)N[C@@H](C)C(=O)N[C@@H](CO)C(=O)N[C@H](C(=O)NCC(=O)N[C@@H](C)C(=O)N[C@@H](CC(C)C)C(=O)N[C@H](C(=O)N[C@@H](CCC(N)=O)C(=O)N[C@@H](CCCCN)C(=O)N[C@@H](C)C(=O)N[C@H](C(=O)N[C@@H](C)C(=O)N[C@@H](CC(C)C)C(=O)N[C@H](C(=O)N[C@@H](CCCCN)C(=O)N[C@@H](C)C(=O)N[C@@H](CCCCN)C(=O)N[C@@H](C)C(=O)N[C@@H](C)C(N)=O)[C@@H](C)CC)[C@@H](C)CC)[C@@H](C)CC)[C@@H](C)CC [LVTX-9-C16] (Palmitoyl-ASIGALIQKAIALIKAKAA-NH2)
[1]
  TR (retention time, RP-HPLC; indicates the hydrophobicity of the peptides): 40.21 min

## CCCCCCCCCCCC(=O)N[C@@H](C)C(=O)N[C@@H](CO)C(=O)N[C@H](C(=O)NCC(=O)N[C@@H](C)C(=O)N[C@@H](CC(C)C)C(=O)N[C@H](C(=O)N[C@@H](CCC(N)=O)C(=O)N[C@@H](CCCCN)C(=O)N[C@@H](C)C(=O)N[C@H](C(=O)N[C@@H](C)C(=O)N[C@@H](CC(C)C)C(=O)N[C@H](C(=O)N[C@@H](CCCCN)C(=O)N[C@@H](C)C(=O)N[C@@H](CCCCN)C(=O)N[C@@H](C)C(=O)N[C@@H](C)C(N)=O)[C@@H](C)CC)[C@@H](C)CC)[C@@H](C)CC)[C@@H](C)CC [LVTX-9-C12] (Lauroyl-ASIGALIQKAIALIKAKAA-NH2)
[1]
  TR (retention time, RP-HPLC; indicates the hydrophobicity of the peptides): 36.52 min

## CCCCCCCCCCCCCCCCCCCC(=O)N[C@@H](C)C(=O)N[C@@H](CO)C(=O)N[C@H](C(=O)NCC(=O)N[C@@H](C)C(=O)N[C@@H](CC(C)C)C(=O)N[C@H](C(=O)N[C@@H](CCC(N)=O)C(=O)N[C@@H](CCCCN)C(=O)N[C@@H](C)C(=O)N[C@H](C(=O)N[C@@H](C)C(=O)N[C@@H](CC(C)C)C(=O)N[C@H](C(=O)N[C@@H](CCCCN)C(=O)N[C@@H](C)C(=O)N[C@@H](CCCCN)C(=O)N[C@@H](C)C(=O)N[C@@H](C)C(N)=O)[C@@H](C)CC)[C@@H](C)CC)[C@@H](C)CC)[C@@H](C)CC [LVTX-9-C20] (Arachidoyl-ASIGALIQKAIALIKAKAA-NH2)
[1]
  TR (retention time, RP-HPLC; indicates the hydrophobicity of the peptides): 43.06 min

## CCCCCCCCCCCCCC(=O)N[C@@H](C)C(=O)N[C@@H](CO)C(=O)N[C@H](C(=O)NCC(=O)N[C@@H](C)C(=O)N[C@@H](CC(C)C)C(=O)N[C@H](C(=O)N[C@@H](CCC(N)=O)C(=O)N[C@@H](CCCCN)C(=O)N[C@@H](C)C(=O)N[C@H](C(=O)N[C@@H](C)C(=O)N[C@@H](CC(C)C)C(=O)N[C@H](C(=O)N[C@@H](CCCCN)C(=O)N[C@@H](C)C(=O)N[C@@H](CCCCN)C(=O)N[C@@H](C)C(=O)N[C@@H](C)C(N)=O)[C@@H](C)CC)[C@@H](C)CC)[C@@H](C)CC)[C@@H](C)CC [LVTX-9-C14] (Myristoyl-ASIGALIQKAIALIKAKAA-NH2)
[1]
  TR (retention time, RP-HPLC; indicates the hydrophobicity of the peptides): 36.15 min
